For series [1], the system named is K. pneumoniae ATCC 29665. Description: MIC by broth microdilution. It is filed as cell-based, Klebsiella pneumoniae. The note with it: Klebsiella pneumoniae. The procedure, abridged: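 Exponential-phase cultures (OD600 0.5, 37 °C aerobic), diluted 100-fold in CAMHB, were added to twofold compound dilution series. Keio strains grown with 50 µg ml^−1 kanamycin. Plates incubated overnight at 37 °C, shaking at 600 r.p.m.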

Series [2] deals with HepG2. Description: Cytotoxicity assay (MTT). The series is classed as cell-based, human. The note with it: for IC50: MTT, 24 h.
Series [3] deals with HEK293T. Description: Cytotoxicity assay (MTT). The series is classed as cell-based, human. The note with it: for cytotoxicity: HEK293T and HepG2; for MTT data (raw readout): HEK293T; for IC50: 24 h, MTT. The procedure, abridged:
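HEK293T cells, maintained at 37 °C and 7% CO2 in Dulbecco’s modified Eagle medium with GlutaMax, antibiotics and serum, were plated in clear 96-well plates in 100 µl medium containing 1% fetal bovine serum and left 24 h to attach. After 24 h compound exposure, MTT (0.40 mg ml^−1) was added for 2 h. Formazan was dissolved in 100 µl DMSO and absorbance measured at 570 nm. Background-corrected IC50 values came from variable-slope non-linear fits.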

[4] abbreviates: ATCC29665, read-out: MIC K. pneumoniae ATCC 29665.
The mark [5] stands for this setting: HepG2, 0.023 uM, experiment n = 1, technical triplicates.
[6] abbreviates: HepG2, 0.023 uM, experiment n = 2, technical triplicates.
Where [7] appears, read: HepG2, 0.068 uM, experiment n = 1, technical triplicates.
[8] abbreviates: HepG2, 0.068 uM, experiment n = 2, technical triplicates.
The mark [9] stands for this setting: HepG2, 0.21 uM, experiment n = 1, technical triplicates.
Where [10] appears, read: HepG2, 0.21 uM, experiment n = 2, technical triplicates.
[11] abbreviates: HepG2, 0.62 uM, experiment n = 1, technical triplicates.
Setting [12] is: HepG2, 0.62 uM, experiment n = 2, technical triplicates.
Where [13] appears, read: HepG2, 1.85 uM, experiment n = 1, technical triplicates.
[14] abbreviates: HepG2, 1.85 uM, experiment n = 2, technical triplicates.
[15] abbreviates: 0.023 uM, experiment n = 1, technical triplicates.
[16] abbreviates: 0.023 uM, experiment n = 2, technical triplicates.
[17] abbreviates: 0.068 uM, experiment n = 1, technical triplicates.
Setting [18] is: 0.068 uM, experiment n = 2, technical triplicates.
Where [19] appears, read: 0.21 uM, experiment n = 1, technical triplicates.
The mark [20] stands for this setting: 0.21 uM, experiment n = 2, technical triplicates.
Where [21] appears, read: 0.62 uM, experiment n = 1, technical triplicates.
Setting [22] is: 0.62 uM, experiment n = 2, technical triplicates.
Where [23] appears, read: 1.85 uM, experiment n = 1, technical triplicates.
Where [24] appears, read: 1.85 uM, experiment n = 2, technical triplicates.
The mark [25] stands for this setting: ATCC29665, broth microdilution, read-out: MIC K. pneumoniae ATCC 29665.

SMILES strings stand for the structures. In brackets after ≈: the same amount, converted by molar mass. Several values for one entry are separate records, joined by “and”; a condition that tells them apart may be missing. Equal values may be shown once. Read-outs that look alike come from different tables or passages of the source.

This note sets out measurements from article PMC11374673, “Discovery of isoquinoline sulfonamides as allosteric gyrase inhibitors with activity against fluoroquinolone-resistant bacteria” (Nature Chemistry, 2024).

Consider `O=C(O)c1cn(C2CC2)c2cc(N3CCNCC3)c(F)cc2c1=O` [CIP, ciprofloxacin], for which the MIC in series [1] (setting [4]) is 0.012 µM (≈ 0.00398 µg/mL).
In the case of `O=S(=O)(NCCNCc1ccc(-c2ccc(F)nc2)cc1)c1cccc2cnccc12` [Compound 60], the “MTT data (raw readout)” value was 0.514 and 0.522 and 0.506 in series [2] (setting [5]); 0.553 and 0.550 and 0.561 in series [2] (setting [6]); 0.526 and 0.514 and 0.522 in series [2] (setting [7]); 0.571 and 0.568 and 0.585 in series [2] (setting [8]); 0.544 and 0.520 and 0.508 in series [2] (setting [9]); 0.610 and 0.553 and 0.611 in series [2] (setting [10]). The “MTT data (raw readout)” value was 0.525 and 0.501 and 0.502 in series [2] (setting [11]); 0.621 and 0.610 and 0.573 in series [2] (setting [12]); 0.546 and 0.544 and 0.528 in series [2] (setting [13]); 0.581 and 0.605 in series [2] (setting [14]); 0.733 and 0.692 in series [3] (setting [15]); 0.767 and 0.777 and 0.816 in series [3] (setting [16]). In addition, the “MTT data (raw readout)” value in series [3] (setting [17]) is 0.746 and 0.796 and 0.737; in series [3] (setting [18]) it was 0.800 and 0.790 and 0.829; in series [3] (setting [19]), 0.734 and 0.766 and 0.710; in series [3] (setting [20]), 0.783 and 0.732 and 0.731; in series [3] (setting [21]), 0.735 and 0.740 and 0.733; in series [3] (setting [22]), 0.809 and 0.824 and 0.770. The “MTT data (raw readout)” value is 0.725 and 0.718 and 0.739 in series [3] (setting [23]); 0.764 and 0.783 and 0.787 in series [3] (setting [24]). Besides, the concentration for half-maximal inhibition (IC50) is greater than 100 µM in series [2] (Homo sapiens, HepG2, 24 h); greater than 50 µM in series [2]; 51 µM in series [3] (Homo sapiens, HEK-293T); greater than 50 µM in series [3]. Further, the “cytotoxicity” value in series [3] is recorded as “lowest cytotoxicity”. In addition, the MIC in series [1] (setting [25]) is 25 µM (≈ 10.9 µg/mL); in series [1] (setting [4]), 6.25 µM (≈ 2.73 µg/mL).
Turning to `O=S(=O)(NC[C@@H]1CC[C@H](c2ccc(-c3ccc(F)cc3)cc2)N1)c1cccc2cnccc12` [Compound 101], the “MTT data (raw readout)” value in series [2] (setting [5]) was 0.470 and 0.394 and 0.364; in series [2] (setting [6]), 0.305 and 0.260 and 0.288; in series [2] (setting [7]), 0.452 and 0.420 and 0.368; in series [2] (setting [8]), 0.322 and 0.313 and 0.323; in series [2] (setting [9]) it was 0.390 and 0.419 and 0.407; in series [2] (setting [10]) it was 0.324 and 0.279 and 0.267. The “MTT data (raw readout)” value in series [2] (setting [11]) was 0.368 and 0.340 and 0.370; in series [2] (setting [12]), 0.315 and 0.269 and 0.267; in series [2] (setting [13]) it was 0.439 and 0.392 and 0.378; in series [2] (setting [14]), 0.289 and 0.297 and 0.299; in series [2] (HepG2, 5.6 uM, experiment n = 1, technical triplicates) it was 0.403 and 0.384 and 0.371; in series [2] (HepG2, 5.6 uM, experiment n = 2, technical triplicates), 0.315 and 0.277 and 0.266. Moreover, the “MTT data (raw readout)” value is 0.208 and 0.211 and 0.189 in series [2] (HepG2, 16.7 uM, experiment n = 1, technical triplicates); 0.140 and 0.112 and 0.095 in series [2] (HepG2, 16.7 uM, experiment n = 2, technical triplicates); 1.467 and 1.369 and 1.336 in series [3] (setting [15]); 0.913 and 0.978 and 0.995 in series [3] (setting [16]); 1.354 and 1.258 and 1.005 in series [3] (setting [17]); 1.026 and 1.021 and 0.846 in series [3] (setting [18]). The “MTT data (raw readout)” value in series [3] (setting [19]) is 1.223 and 1.254 and 1.173; in series [3] (setting [20]), 1.069 and 0.984 and 0.926; in series [3] (setting [21]), 1.112 and 0.937 and 0.942; in series [3] (setting [22]) it was 0.770 and 0.738 and 0.688; in series [3] (setting [23]), 0.725 and 0.641 and 0.684; in series [3] (setting [24]), 0.521 and 0.485 and 0.507. Besides, the “MTT data (raw readout)” value in series [3] (5.6 uM, experiment n = 1, technical triplicates) is 0.749 and 0.695 and 0.667; in series [3] (5.6 uM, experiment n = 2, technical triplicates), 0.483 and 0.462 and 0.474; in series [3] (16.7 uM, experiment n = 1, technical triplicates), 0.450 and 0.504 and 0.484; in series [3] (16.7 uM, experiment n = 2, technical triplicates), 0.372 and 0.345; in series [3] (50 uM, experiment n = 2, technical triplicates), 0.011 and 0.012. For the same molecule, the IC50 in series [2] (Homo sapiens, HepG2, 24 h) turned out to be 13 µM; in series [3] (Homo sapiens, HEK-293T) it was 3.2 µM. Also, the “cytotoxicity” value in series [3] was “substantial cytotoxicity”. The MIC in series [1] (setting [25]) was determined as 3.1 µM (≈ 1.43 µg/mL).
